Biological target: Acetylcholinesterase (AChE) (Electrophorus electricus, UniProt O42275)
Assay: Ellman colorimetric enzyme inhibition assay (commercial enzyme)
Type: biochemical

Chain of Acetylcholinesterase (AChE) (O42275 24-633): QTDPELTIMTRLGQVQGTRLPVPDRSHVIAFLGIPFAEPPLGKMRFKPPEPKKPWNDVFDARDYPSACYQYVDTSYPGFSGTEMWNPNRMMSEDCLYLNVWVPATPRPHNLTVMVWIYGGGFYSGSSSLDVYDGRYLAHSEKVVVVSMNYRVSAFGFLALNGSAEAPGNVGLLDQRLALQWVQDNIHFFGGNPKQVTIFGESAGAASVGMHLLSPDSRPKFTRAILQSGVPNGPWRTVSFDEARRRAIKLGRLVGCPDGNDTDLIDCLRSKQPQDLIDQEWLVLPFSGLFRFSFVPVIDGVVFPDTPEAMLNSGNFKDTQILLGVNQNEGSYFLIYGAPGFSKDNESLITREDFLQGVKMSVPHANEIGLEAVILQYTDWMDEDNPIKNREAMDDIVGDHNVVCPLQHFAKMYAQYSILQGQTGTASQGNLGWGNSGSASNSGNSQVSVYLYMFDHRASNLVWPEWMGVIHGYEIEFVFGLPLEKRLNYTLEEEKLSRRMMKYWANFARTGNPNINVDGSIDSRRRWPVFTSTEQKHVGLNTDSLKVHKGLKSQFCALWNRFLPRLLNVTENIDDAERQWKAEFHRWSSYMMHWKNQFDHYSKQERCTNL

SMILES: O=C1CCCC1C(O)c1cccc([N+](=O)[O-])c1 (stereo not shown) [3NCP, 2-(hydroxy-(3-nitrophenyl)methyl)cyclopentanone]
- IC50: 68.7 µM

From PMC7603158, “Attenuation of Spatial Memory in 5xFAD Mice by Halting Cholinesterases, Oxidative Stress and Neuroinflammation Using a Cyclopentanone Derivative” (Pharmaceuticals, 2020)
